The record followed here is PMC8134461, “A physicochemical assessment of the thermal stability of dextrin–colistin conjugates” (Scientific Reports, 2021).

Counter-ions that a name gives are not always drawn. Positions of bridges follow the written chain, without caps; N, C: chain ends. Non-standard residues stand in square brackets, D forms with d. Residues, ends and D or L forms follow the SMILES beside them. *: point of attachment. X1 = CC[C@H](C)CCCCC(=O)*; Dab = NCC[C@H](N)C(=O)O Some results are limits rather than exact numbers.

Data set [1] deals with V6 Klebsiella pneumoniae IR25. It is filed as cell-based. Conditions: 16–20 h, mode (n = 3), equivalent colistin concentration for conjugates; for MIC, Initial: before storage, 3 mg/mL in PBS, broth microdilution in MH broth; for MIC, storage temperature 4 °C: stored in PBS at 4 °C for 12 months; for MIC, storage temperature 4 °C / MIC, storage temperature 21 °C / MIC, storage temperature 37 °C / MIC, storage temperature -20 °C / MIC, repeat freeze–thaw: broth microdilution, MH broth; for MIC, storage temperature 21 °C: stored in PBS at 21 °C for 12 months; for MIC, storage temperature 37 °C: stored in PBS at 37 °C for 12 months; for MIC, storage temperature -20 °C: stored in PBS at -20 °C for 12 months; for MIC, repeat freeze–thaw: weekly freeze-thawing for 5 weeks (-20 °C, defrosted 1 h at 20–22 °C). On the procedure: (§1) The clinical isolates (V5 Escherichia coli AIM-1, V6 Klebsiella pneumoniae IR25 and V19 Acinetobacter baumannii 7789) and susceptibility testing method have been previously described by Khan et al.[33] Bacterial colonies were grown on blood agar supplemented with 5% v/v defibrinated horse blood. Overnight cultures were prepared in tryptone soy broth (TSB) and Mueller–Hinton broth (MHB) was used for MIC determination (LabM; Bury, UK).
(§2) Three primary batches of colistin sulfate, CMS and dextrin-colistin conjugates were dissolved in PBS at 3 mg/mL and stored at − 20, 4, 21 and 37 °C for 0, 1, 3, 6, 9 and 12 months. In addition, to test the effect of repeated freeze–thaw on stability, a separate set of solutions were stored at − 20 °C and defrosted for 1 h at 20–22 °C weekly for 5 cycles. Samples were analyzed using FPLC (free drug) and GPC (saccharide release) and antimicrobial activity, UV/vis absorbance and protein content (bicinchoninic acid (BCA) assay) of the samples stored for 12 months was assessed.
(§3) The minimum inhibitory concentration (MIC) of colistin sulphate, CMS and dextrin-colistin conjugates was determined using the broth microdilution method in MH broth in accordance with standard guidelines. Test organisms were suspended in MH broth (100 µL, 5 × 10^5 colony forming units (CFU)/mL) and incubated in 96-well microtitre plates in serial two-fold dilutions of the test compounds. The MIC was defined as the lowest concentration of test compound that produced no visible growth after 16–20 h. Results were expressed as mode (n = 3).

Data set [2] deals with V19 Acinetobacter baumannii 7789. The class given is cell-based. The settings on record: 16–20 h, mode (n = 3), equivalent colistin concentration for conjugates; for MIC, Initial: before storage, 3 mg/mL in PBS, broth microdilution in MH broth; for MIC, storage temperature 4 °C: stored in PBS at 4 °C for 12 months; for MIC, storage temperature 4 °C / MIC, storage temperature 21 °C / MIC, storage temperature 37 °C / MIC, storage temperature -20 °C / MIC, repeat freeze–thaw: broth microdilution, MH broth; for MIC, storage temperature 21 °C: stored in PBS at 21 °C for 12 months; for MIC, storage temperature 37 °C: stored in PBS at 37 °C for 12 months; for MIC, storage temperature -20 °C: stored in PBS at -20 °C for 12 months; for MIC, repeat freeze–thaw: weekly freeze-thawing for 5 weeks (-20 °C, defrosted 1 h at 20–22 °C). On the procedure:
as §1, §2, §3

Data set [3] has as its system V5 Escherichia coli AIM-1. Kind of data set: MIC assay (broth microdilution) after storage. The class given is cell-based. The settings on record: 16–20 h, mode (n = 3), equivalent colistin concentration for conjugates; for MIC, Initial: before storage, 3 mg/mL in PBS, broth microdilution in MH broth; for MIC, storage temperature 4 °C: stored in PBS at 4 °C for 12 months; for MIC, storage temperature 4 °C / MIC, storage temperature 21 °C / MIC, storage temperature 37 °C / MIC, storage temperature -20 °C / MIC, repeat freeze–thaw: broth microdilution, MH broth; for MIC, storage temperature 21 °C: stored in PBS at 21 °C for 12 months; for MIC, storage temperature 37 °C: stored in PBS at 37 °C for 12 months; for MIC, storage temperature -20 °C: stored in PBS at -20 °C for 12 months; for MIC, repeat freeze–thaw: weekly freeze-thawing for 5 weeks (-20 °C, defrosted 1 h at 20–22 °C). The protocol: as §1, §2, §3
For orientation: In broth dilution the organism is exposed to a series of concentrations in liquid medium.

In data set [4] the test system is V5 Escherichia coli AIM-1, V6 Klebsiella pneumoniae IR25 and V19 Acinetobacter baumannii 7789. The data set can be described thus: Antimicrobial activity after storage, MIC assay, statement over all test strains. The class given is cell-based. The settings on record: repeated freeze–thaw or storage in solution for up to 12 months at -20, 4 or 21 °C. The protocol: as §1, §2
The minimum inhibitory concentration (MIC) of colistin sulphate, CMS and dextrin-colistin conjugates was determined using the broth microdilution method in MH broth in accordance with standard guidelines. […] Results were expressed as mode (n = 3).

Data set [5] in a line: Stability during storage in PBS: saccharide release and elution profile by GPC. The class given is physicochemical. Conditions: 3 mg/mL in PBS, up to 12 months; Ultrahydrogel 120, RI; CMS: after storage above -20 °C. The protocol:
as §2
GPC was performed using an Ultrahydrogel guard column and two Ultrahydrogel 120 columns (7.8 mm × 300 mm) from Waters (Elstree, UK) in series, connected to a Jasco PU-1580 HPLC pump with PBS buffer eluent and a flow rate of 1 mL/min. Samples (300 μL) were injected into a 100 μL loop and the eluate was monitored using a Jasco MD-2010 multi-wavelength UV detector (210 and 280 nm) and a Gilson 153 differential refractometer (Middleton, WI, USA) connected to a Polymer Laboratories PL DataStream (Church Stretton, UK). Dual detection enabled distinction of dextrin and saccharide components that are not bound to colistin. Cirrus GPC software (version 3.2, 2006) from Polymer Laboratories (Church Stretton, UK) was used for data analysis. Glucose and maltose oligomers (DP 2, 3, 6 and 7) were employed for calibration. […]

Consider `CC[C@H](C)CCCCC(=O)N[C@@H](CCN)C(=O)N[C@H](C(=O)N[C@@H](CCN)C(=O)N[C@H]1CCNC(=O)[C@H]([C@@H](C)O)NC(=O)[C@H](CCN)NC(=O)[C@H](CCN)NC(=O)[C@H](CC(C)C)NC(=O)[C@@H](CC(C)C)NC(=O)[C@H](CCN)NC1=O)[C@@H](C)O` [Colistin sulfate, colistin sulfate] (X1-[Dab]T[Dab][Dab][Dab][dL]L[Dab][Dab]T; lactam 4-C (inferred); N-terminus assumed), for which, in data set [1], the “MIC, Initial” value is 0.125 µg/mL; the “MIC, storage temperature 4 °C” value came out at 0.125 µg/mL; the “MIC, storage temperature 21 °C” value came out at 0.5 µg/mL; the “MIC, storage temperature 37 °C” value is greater than 128 µg/mL. Further, in data set [1], the “MIC, storage temperature -20 °C” value stood at 0.063 µg/mL and the “MIC, repeat freeze–thaw” value stood at 0.25 µg/mL. In data set [2], the “MIC, Initial” value is 0.063 µg/mL; the “MIC, storage temperature 4 °C” value amounted to 0.031 µg/mL; the “MIC, storage temperature 21 °C” value worked out at 0.125 µg/mL; the “MIC, storage temperature 37 °C” value is 32 µg/mL. In addition, in data set [2], the “MIC, storage temperature -20 °C” value was 0.063 µg/mL and the “MIC, repeat freeze–thaw” value turned out to be 0.063 µg/mL. Further, in data set [3], the “MIC, Initial” value amounted to 0.004 µg/mL; the “MIC, storage temperature 4 °C” value was found to be 0.002 µg/mL; the “MIC, storage temperature 21 °C” value stood at 0.016 µg/mL; the “MIC, storage temperature 37 °C” value came to 0.25 µg/mL. Besides, in data set [3], the “MIC, storage temperature -20 °C” value was found to be 0.002 µg/mL and the “MIC, repeat freeze–thaw” value stood at 0.004 µg/mL. In data set [4], the “change of antimicrobial activity (MIC) after storage” value is listed as “unaffected”. Also, the “change of GPC elution profile after storage” value in data set [5] is “largely unchanged”.
For Colistimethate sodium [CMS], in data set [1], the “MIC, Initial” value came to 2 µg/mL; the “MIC, storage temperature 4 °C” value came out at 1 µg/mL; the “MIC, storage temperature 21 °C” value was 1 µg/mL; the “MIC, storage temperature 37 °C” value was found to be 128 µg/mL. Also, in data set [1], the “MIC, storage temperature -20 °C” value was 1 µg/mL and the “MIC, repeat freeze–thaw” value amounted to 0.5 µg/mL. In addition, in data set [2], the “MIC, Initial” value worked out at 0.5 µg/mL; the “MIC, storage temperature 4 °C” value is 0.125 µg/mL; the “MIC, storage temperature 21 °C” value was found to be 0.25 µg/mL; the “MIC, storage temperature 37 °C” value was 64 µg/mL. Besides, in data set [2], the “MIC, storage temperature -20 °C” value is 0.25 µg/mL and the “MIC, repeat freeze–thaw” value is 0.125 µg/mL. In data set [3], the “MIC, Initial” value came to 0.125 µg/mL; the “MIC, storage temperature 4 °C” value is 0.063 µg/mL; the “MIC, storage temperature 21 °C” value stood at 0.063 µg/mL; the “MIC, storage temperature 37 °C” value was 8 µg/mL. In data set [3], the “MIC, storage temperature -20 °C” value came out at 0.031 µg/mL and the “MIC, repeat freeze–thaw” value was found to be 0.031 µg/mL. Also, in data set [4], the “change of antimicrobial activity (MIC) after storage” value was “unaffected”. The “change of GPC elution profile after storage” value in data set [5] is “Significant changes in the elution profile”.
